Patent US9829495B2, “Method for differentially diagnosing ACTH-dependent Cushing's syndrome” (Corcept Therapeutics, Inc., priority 2015, dated 2017)

Tested on: ACTH from the pituitary gland
Assay: ACTH stimulation after oral mifepristone in persons with normal HPA function
Assay type: in vivo, human
Settings: oral dose of 300-1500 mg; persons having normal hypothalamic-pituitary-adrenal axis (HPA) function
Protocol: GRA is administered at a dosage that is sufficient to increase ACTH in the pituitary gland by at least two fold in persons with normal HPA functions. In one embodiment, the GRA is mifepristone. In one embodiment, mifepristone is administered orally to the patient. […] In one embodiment, the GRA is administered at 11 pm the night before IPSS. Following the diagnosis of ACTH dependent Cushing's syndrome, they then undergo IPSS to identify the source of abnormal ACTH secretion, i.e., whether it is pituitary or ectopic. […] Another 0.018 microcatherter is inserted into the peripheral jugular vein. A 5,000 unit bolus of heparin is administered to the veins to prevent venous sinus thrombosis.

Structure (SMILES): CC#C[C@]1(O)CC[C@H]2[C@@H]3CCC4=CC(=O)CCC4=C3[C@@H](c3ccc(N(C)C)cc3)C[C@@]21C [mifepristone, 17-β-hydrox-11-β-(4-dimethyl-aminophenyl)17-α-(1-propynyl)estra-4,9-dien-3-one]
- increase ACTH from the pituitary gland: at least two-fold
